{"source": "paper PMC12384620", "about": "“Hit-to-Lead Studies of Pyrazinylpiperazines against Visceral Leishmaniasis: Pharmacokinetic Profile and In Vivo Efficacy of Potent Compounds against Leishmania infantum” (ACS Pharmacology & Translational Science, 2025)", "key": {"BALB/c mice": {"tested_on": "BALB/c mice", "experiment": "Acute toxicity / maximum tolerated dose in uninfected mice", "format": "in vivo, mouse", "conditions": "intraperitoneal, accumulated dose 100 mg/kg, 24 h after last dose", "experimental": "The maximum tolerated dose (MTD) of 2 was determined in BALB/c mice. One male and one female specimen, uninfected, 6 weeks old (ideal weight: 20 g), were each administered intraperitoneally an emulsified sample prepared with 70% PBS1X, 20% PEG 400 (Polyethylene glycol 400, Sigma-Aldrich), 0.16% Tween 80 and 10% of 2, with an initial dose of 5 mg/kg of 2. After 2 h, an additional dose of 15 mg/kg was administered (resulting in an accumulated dose (AD) of 20 mg/kg). After another 2 h, a new dose of 30 mg/kg was administered (AD = 50 mg/kg). After a further 2 h, a final dose of 50 mg/kg (AD = 100 mg/kg) was administered."}, "L. infantum::tdTomato": {"tested_on": "L. infantum::tdTomato", "format": "in vivo, mouse", "conditions": "for parasitemia reduction in the spleen / parasitemia reduction in the liver: 20 dpi, vs untreated control", "experimental": "BALB/c mice (male, 6 to 8 weeks old, 18 to 20 g) were inoculated intravenously (tail vein) with 2 × 10^7 late-log-phase L. infantum promastigotes from Li::tdTomato lines, and randomly assigned into one of the four treatment groups (six mice per group). After 7 days of infection, […] was administered intraperitoneally in a single dose 500 mg/kg/day meglumine antimoniate (Glucantime, Sanofi Medley), both groups treated with 2 received two daily intraperitoneal injections totaling either 50 mg/kg/day or 100 mg/kg/day of 2, and the control group was administered the vehicle solution. For the intraperitoneal injection, 2 was formulated as follows: a stock solution of 2 in DMSO (100 mg/mL) was prepared daily, and a solution of 70% PBS1X, 20% PEG 400 (Polyethylene Glycol 400, Sigma-Aldrich), 0.16% Tween 80 and 10% of 2 (from the stock solution) was prepared. The control group was also administered this solution, replacing 2 with 10% DMSO. All mice were euthanized 3 days after the end of the treatment, and the liver and spleen of each animal were collected.\nThe number of viable parasites in each organ was determined using a quantitative limiting dilution assay. Briefly, the organs were macerated using an Ultra-Turrax disperser (IKA-Werke GmbH & Co. KG., Staufen, Germany), and a tissue homogenate was obtained with 1 mL of M199 medium. Each tissue homogenate was sequentially diluted (10-fold) in 96-well flat-bottom microtiter black plates and incubated at 26 °C for 10 days. The wells containing motile promastigotes were identified with an inverted microscope (Axiovert 25, Zeiss), and the parasite burden was determined from the highest dilution at which promastigotes had grown after 10 days of incubation."}}, "note": "Where two headings read alike, the source gives them in different places."}
{"compound": "O=C(c1ccc(O)cc1)N1CCN(c2cnccn2)CC1", "note": "[Compound 2, (4-Hydroxyphenyl)(4-(pyrazin-2-yl)piperazin-1-yl)methanone]", "values": [{"measurement": "signs of acute toxicity (MTD determination)", "setting": "BALB/c mice", "result": "no apparent signs of acute toxicity"}, {"measurement": "parasitemia reduction in the spleen", "setting": "L. infantum::tdTomato; 50 mg/kg/day i.p., 10 days", "result": 80.0, "unit": "%"}, {"measurement": "parasitemia reduction in the liver", "setting": "L. infantum::tdTomato; 50 mg/kg/day i.p., 10 days, not significant", "result": 44.4, "unit": "%"}, {"measurement": "parasitemia reduction in the liver", "setting": "L. infantum::tdTomato; 100 mg/kg/day i.p., 10 days", "result": 90.0, "unit": "%"}, {"measurement": "parasitemia reduction in the spleen", "setting": "L. infantum::tdTomato; 100 mg/kg/day i.p., 10 days", "result": 91.1, "unit": "%"}, {"measurement": "parasitemia reduction", "setting": "L. infantum::tdTomato; 100 mg/kg/day, 7-day treatment (as printed in the conclusion)", "result": "over 90%"}, {"measurement": "death among treated mice", "setting": "L. infantum::tdTomato; 50 and 100 mg/kg/day i.p., 10 days", "result": "No death"}, {"measurement": "external signs of acute toxicity during and after treatment", "setting": "L. infantum::tdTomato; 50 and 100 mg/kg/day i.p., 10 days, infected BALB/c mice", "result": "No external signs of acute toxicity"}]}
